Laboratory results published in ChEMBL document CHEMBL1944563, “Separation of Betti Reaction Product Enantiomers: Absolute Configuration and Inhibition of Botulinum Neurotoxin A” (ACS Med Chem Lett, 2011).

Legend:
[1] = target: Botulinum neurotoxin type A (Clostridium botulinum (strain Hall / ATCC 3502 / NCTC 13319 / Type A), UniProt P0DPI1); experiment: Inhibition of Clostridium botulinum Hall BoNT/A light chain using SNAP-25 (187 to 203) as substrate by HPLC analysis; design: species or system Clostridium botulinum A str. Hall
[2] = target: Botulinum neurotoxin type A (Clostridium botulinum (strain Hall / ATCC 3502 / NCTC 13319 / Type A)) (UniProt P0DPI1); experiment: Inhibition of Clostridium botulinum Hall BoNT/A-induced toxicity in mouse Neuro2a cells assessed as inhibition of SNAP25 substrate cleavage at 45 uM by Western blotting; format: cell-based; conditions: Clostridium botulinum A str. Hall
[3] = target: Botulinum neurotoxin type A (Clostridium botulinum (strain Hall / ATCC 3502 / NCTC 13319 / Type A)) (UniProt P0DPI1); experiment: Inhibition of Clostridium botulinum Hall BoNT/A-induced toxicity in mouse Neuro2a cells assessed as inhibition of SNAP25 substrate cleavage at 15 uM by Western blotting; format: cell-based; conditions: Clostridium botulinum A str. Hall
[4] = target: Botulinum neurotoxin type A (Clostridium botulinum (strain Hall / ATCC 3502 / NCTC 13319 / Type A)) (UniProt P0DPI1); experiment: Inhibition of Clostridium botulinum Hall BoNT/A light chain using SNAP-25 (187 to 203) as substrate at 5 uM by HPLC analysis; conditions: Clostridium botulinum A str. Hall
[5] = target: Botulinum neurotoxin type A (Clostridium botulinum (strain Hall / ATCC 3502 / NCTC 13319 / Type A)) (UniProt P0DPI1); experiment: Inhibition of Clostridium botulinum Hall BoNT/A light chain using SNAP-25 (187 to 203) as substrate at 20 uM by HPLC analysis; conditions: Clostridium botulinum A str. Hall
[6] = target: Botulinum neurotoxin type A (Clostridium botulinum (strain Hall / ATCC 3502 / NCTC 13319 / Type A)) (UniProt P0DPI1); experiment: Inhibition of Clostridium botulinum Hall BoNT/A-induced toxicity in mouse Neuro2a cells assessed as inhibition of SNAP25 substrate cleavage at 60 uM by Western blotting; format: cell-based; conditions: Clostridium botulinum A str. Hall
[7] = target: Botulinum neurotoxin type A (Clostridium botulinum (strain Hall / ATCC 3502 / NCTC 13319 / Type A)) (UniProt P0DPI1); experiment: Inhibition of Clostridium botulinum Hall BoNT/A-induced toxicity in mouse Neuro2a cells assessed as inhibition of SNAP25 substrate cleavage at 30 uM by Western blotting; format: cell-based; conditions: Clostridium botulinum A str. Hall
[8] = target: Botulinum neurotoxin type A (Clostridium botulinum (strain Hall / ATCC 3502 / NCTC 13319 / Type A)) (UniProt P0DPI1); experiment: Inhibition of Clostridium botulinum Hall BoNT/A-induced paralysis in mouse phrenic nerve hemidiaphragm assessed as time required for loss of 50% twitch tension at 2 uM; conditions: Clostridium botulinum A str. Hall
[9] = target: Botulinum neurotoxin type A (Clostridium botulinum (strain Hall / ATCC 3502 / NCTC 13319 / Type A)) (UniProt P0DPI1); experiment: Inhibition of Clostridium botulinum Hall BoNT/A-induced paralysis in mouse phrenic nerve hemidiaphragm assessed as delay in paralytic half-time at 2 uM relative to control; conditions: Clostridium botulinum A str. Hall

Botulinum neurotoxin type A, sequence (P0DPI1 2-448 limits assumed): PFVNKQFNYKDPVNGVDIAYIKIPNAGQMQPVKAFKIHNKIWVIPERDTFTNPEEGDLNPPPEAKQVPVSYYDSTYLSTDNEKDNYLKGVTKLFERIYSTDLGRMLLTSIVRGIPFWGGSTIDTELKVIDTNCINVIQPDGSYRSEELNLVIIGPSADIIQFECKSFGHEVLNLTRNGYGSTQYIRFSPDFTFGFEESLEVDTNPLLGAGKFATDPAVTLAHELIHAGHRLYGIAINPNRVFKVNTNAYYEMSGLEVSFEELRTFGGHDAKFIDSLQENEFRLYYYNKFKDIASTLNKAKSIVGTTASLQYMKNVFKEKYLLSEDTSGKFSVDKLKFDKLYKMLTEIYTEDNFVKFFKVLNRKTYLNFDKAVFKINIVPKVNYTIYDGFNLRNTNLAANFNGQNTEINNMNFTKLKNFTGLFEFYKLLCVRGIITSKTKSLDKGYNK
Botulinum neurotoxin type A (Clostridium botulinum (strain Hall / ATCC 3502 / NCTC 13319 / Type A)), sequence (P0DPI1 2-448 limits assumed): as above

SMILES | IC50 [1] | inhibition [2] | inhibition [3] | inhibition [4] | inhibition [5] | inhibition [6] | inhibition [7] | TIME [8] | fold change (FC) [9]
Oc1c(C(Nc2ccccn2)c2ccccc2)cc(Cl)c2cccnc12 (racemic) | 1500 nM | 90% | 41% | 88% | 92% | 91% | 74% | – | –
Oc1c([C@@H](Nc2ccccn2)c2ccccc2)cc(Cl)c2cccnc12 | 1000 nM | 93% | 54% | 90% | 91% | 96% | 69% | 3.13 h | 3
Oc1c([C@H](Nc2ccccn2)c2ccccc2)cc(Cl)c2cccnc12 | 1100 nM | 94% | 56% | 90% | 94% | 96% | 89% | 3.18 h | 3
